Laboratory results taken from patent US5045566A, “Novel imidate insecticides” (ICI Americas Inc., priority 1989, dated 1991).

Assays:
Type in all cases: in vivo
[1] = system: Tobacco Budworm [Heliothis virescens (Fabricius)] eggs; assay: Tobacco budworm eggs (TBW-E); conditions: percent in solution; 2-day old eggs
How it was run: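 2-day eggs on paper towel, acetone dip, 0.1% and below; petri dish with larval diet, 78° F. Mortality read after control hatch and larval feeding. LC50 = % compound in solution, from dose-mortality curve.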

[2] = system: Cabbage Looper [Trichoplusia ni (Hubner)]; assay: Cabbage looper leaf dip (CL), 3-5 days; conditions: percent in solution, second-instar larvae
How it was run: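 LC50 values, given as percent test compound in solution, were calculated from dosage-mortality curves. Squash cotyledons were immersed 2-3 s in acetone-water (50-50) dilutions starting at 0.1%, dried on a screen, then infested with five second-instar larvae. Mortality was read 3-5 days on.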

[3] = system: Housefly [Musca domestica]; assay: Housefly contact mortality in dishes (HF), 48 hours; conditions: μg of test compound per 25 female flies
How it was run: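 LC50, as μg compound per 25 female flies, comes from dosage-mortality curves with doses from 100 μg downward. Residues were made by evaporating acetone plus 0.01% peanut oil in dishes, onto which 1-2-day-old females were caged; deaths were counted after 48 hours.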

[4] = system: Maize weevil [Sitophilus zeamais (Motschulsky)]; assay: Maize weevil on dipped corn seeds (MW), 48 hours; conditions: percent in solution, adult weevils
How it was run: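 LC50, given as percent of compound in dipping solution, comes from dosage-mortality curves over concentrations descending from 0.01%. Four corn seeds soaked 2-3 s in 50:50 acetone:water solution were dried and held with 10 adult weevils, about 25° C, mortality read after 48 h.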

[5] = system: Black Bean Aphid [Aphis fabae (Scop.)]; assay: Black bean aphid spray test on nasturtium (BBA), 48 hours; conditions: percent of test compound in sprayed solution
How it was run: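 LC50, given as percent test compound in the sprayed liquid, was calculated from dosage-mortality curves using concentrations from 0.05% downward. Sprays in 50:50 acetone-water went to runoff on ~5 cm nasturtiums carrying 25-50 aphids of mixed ages, one day after infestation. Deaths were counted 48 h later under greenhouse conditions.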

CCc1ccc(N=C(OCc2cccc(Oc3ccc(F)cc3)c2)C(C)C)cc1Cl [Compound 438]
LC50 TBW E (eggs) [1]: < 0.1%
LC50 CL [2]: 0.0009%
LC50 HF [3]: > 100 µg
LC50 MW [4]: > 0.01%
LC50 BBA [5]: 0.0003%

CCOc1ccc(N=C(OCc2ccc(F)c(Oc3ccccc3)c2)C(C)C)cc1F [Compound 439]
LC50 TBW E (eggs) [1]: > 0.1%
LC50 CL [2]: 0.00045%
LC50 HF [3]: > 100 µg
LC50 MW [4]: > 0.01%
LC50 BBA [5]: 0.0003%

CCCc1ccc(N=C(OCc2ccc(F)c(Oc3ccc(F)cc3)c2)C(C)C)cc1 [Compound 440]
LC50 TBW E (eggs) [1]: < 0.1%
LC50 CL [2]: 0.002%
LC50 HF [3]: > 100 µg
LC50 MW [4]: > 0.01%
LC50 BBA [5]: 0.0003%

CC(C)C(=Nc1ccc(Cl)c(F)c1)OCc1ccc(F)c(Oc2ccc(F)cc2)c1 [Compound 441]
LC50 TBW E (eggs) [1]: 0.016%
LC50 CL [2]: 0.000025%
LC50 HF [3]: < 100 µg
LC50 MW [4]: 0.006%
LC50 BBA [5]: 0.0003%

C=C(C)C(=Nc1ccc(C(F)(F)F)cc1)OCc1cccc(Oc2ccc(F)cc2)c1 [Compound 442]
LC50 TBW E (eggs) [1]: 0.035%
LC50 CL [2]: 0.0007%
LC50 HF [3]: < 100 µg
LC50 MW [4]: > 0.01%
LC50 BBA [5]: 0.001%

CC(C)C(=Nc1ccc(C(F)(F)F)cc1[N+](=O)[O-])OCc1ccc(F)c(Oc2ccccc2)c1 [Compound 445]
LC50 TBW E (eggs) [1]: > 0.1%
LC50 CL [2]: 0.00045%
LC50 HF [3]: < 100 µg
LC50 MW [4]: > 0.01%
LC50 BBA [5]: 0.001%

CCOc1ccc(N=C(OCc2cccc(Oc3ccc(F)cc3)c2)C(C)C)cc1Br [Compound 446]
LC50 TBW E (eggs) [1]: < 0.1%
LC50 CL [2]: 0.0008%
LC50 HF [3]: > 100 µg
LC50 MW [4]: > 0.01%
LC50 BBA [5]: 0.001%

CC(C)C(=Nc1cccc(C(F)(F)F)c1)OC(C)c1cccc(Oc2ccccc2)c1 (centres unmarked) [Compound 459]
LC50 TBW E (eggs) [1]: 0.1%
LC50 CL [2]: 0.008%
LC50 HF [3]: > 100 µg
LC50 MW [4]: > 0.01%
LC50 BBA [5]: > 0.05%

CC(C)C(=Nc1ccc(F)c(Cl)c1)OCc1cccc(Oc2c(F)c(F)c(F)c(F)c2F)c1 [Compound 460]
LC50 TBW E (eggs) [1]: > 0.1%
LC50 CL [2]: 0.02%
LC50 HF [3]: > 100 µg
LC50 MW [4]: > 0.01%
LC50 BBA [5]: > 0.05%

CC(C)C(=Nc1ccc(I)c(Cl)c1)OCc1cccc(Oc2ccc(Cl)cc2)n1 [Compound 471]
LC50 TBW E (eggs) [1]: 0.018%
LC50 CL [2]: 0.00018%
LC50 HF [3]: < 100 µg
LC50 MW [4]: > 0.01%
LC50 BBA [5]: 0.001%

COCc1c(F)c(F)c(COC(=Nc2cccc(C(F)(F)F)c2)C(C)C)c(F)c1F [Compound 503]
LC50 TBW E (eggs) [1]: 0.08%
LC50 CL [2]: 0.001%
LC50 HF [3]: 21 µg
LC50 MW [4]: > 0.01%
LC50 BBA [5]: 0.006%

CC(C)C(=Nc1ccc(C(F)(F)F)cc1)OCc1cccc(Oc2ccccc2)n1 [Compound 504]
LC50 TBW E (eggs) [1]: 0.05%
LC50 CL [2]: 0.00025%
LC50 HF [3]: < 100 µg
LC50 MW [4]: 0.01%
LC50 BBA [5]: 0.0003%

COCc1c(F)c(F)c(COC(=Nc2ccc(F)c(Cl)c2)C(C)C)c(F)c1F [Compound 505]
LC50 TBW E (eggs) [1]: 0.09%
LC50 CL [2]: 0.0024%
LC50 HF [3]: 14 µg
LC50 MW [4]: > 0.01%
LC50 BBA [5]: 0.002%

CC(C)C(=Nc1cccc(C(F)(F)F)c1)OCc1cc(Oc2ccccc2)ccn1 [Compound 506]
LC50 TBW E (eggs) [1]: > 0.1%
LC50 CL [2]: 0.005%
LC50 HF [3]: 40 µg
LC50 MW [4]: > 0.01%
LC50 BBA [5]: 0.03%

CC(C)C(=Nc1cccc(C(F)(F)F)c1)OCc1ccnc(Oc2ccccc2)c1 [Compound 507]
LC50 TBW E (eggs) [1]: > 0.1%
LC50 CL [2]: 0.002%
LC50 HF [3]: 93 µg
LC50 MW [4]: > 0.01%
LC50 BBA [5]: 0.05%

CC(C)C(=Nc1cccc(C(F)(F)F)c1)OCc1cc(Oc2ccc(Cl)cc2)ccn1 [Compound 509]
LC50 TBW E (eggs) [1]: > 0.1%
LC50 CL [2]: 0.0075%
LC50 HF [3]: 79 µg
LC50 MW [4]: > 0.01%
LC50 BBA [5]: > 0.05%

CC(C)C(=Nc1ccc(F)c(Cl)c1)OCc1ccnc(Oc2ccccc2)c1 [Compound 510]
LC50 TBW E (eggs) [1]: > 0.1%
LC50 CL [2]: 0.017%
LC50 HF [3]: 54 µg
LC50 MW [4]: > 0.01%
LC50 BBA [5]: 0.05%

CC(C)C(=Nc1ccc(F)c(Cl)c1)OCc1ccnc(Oc2ccc(F)cc2)c1 [Compound 511]
LC50 TBW E (eggs) [1]: > 0.1%
LC50 CL [2]: 0.0012%
LC50 HF [3]: 89 µg
LC50 MW [4]: > 0.01%
LC50 BBA [5]: 0.05%

CC(C)C(=Nc1ccc(OC(F)(F)F)cc1)OCc1cccc(Oc2ccccc2)n1 [Compound 550]
LC50 TBW E (eggs) [1]: > 0.1%
LC50 CL [2]: 0.00034%
LC50 HF [3]: < 100 µg
LC50 MW [4]: > 0.01%
LC50 BBA [5]: 0.002%

CC(C)C(=Nc1ccc(Br)c(F)c1)OCc1cccc(Oc2ccc(Cl)cc2)n1 [Compound 551]
LC50 TBW E (eggs) [1]: 0.035%
LC50 CL [2]: 0.00075%
LC50 HF [3]: < 100 µg
LC50 MW [4]: > 0.01%
LC50 BBA [5]: 0.0006%

CCc1ccc(N=C(OCc2cccc(Oc3ccc(Cl)cc3)n2)C(C)C)cc1 [Compound 552]
LC50 TBW E (eggs) [1]: > 0.1%
LC50 CL [2]: 0.0016%
LC50 HF [3]: > 100 µg
LC50 MW [4]: > 0.01%
LC50 BBA [5]: 0.002%

CC(C)C(=Nc1ccc(Cl)cc1)OCc1cccc(Oc2ccccc2)n1 [Compound 553]
LC50 TBW E (eggs) [1]: 0.1%
LC50 CL [2]: < 0.1%
LC50 HF [3]: < 100 µg
LC50 MW [4]: > 0.01%
LC50 BBA [5]: 0.05%

CC(C)C(=Nc1ccc(Cl)cc1)OCc1cccc(Oc2ccc(Cl)cc2)n1 [Compound 554]
LC50 TBW E (eggs) [1]: 0.04%
LC50 CL [2]: 0.00075%
LC50 HF [3]: > 100 µg
LC50 MW [4]: > 0.01%
LC50 BBA [5]: 0.003%

CC(C)C(=Nc1ccc(Cl)c(C(F)(F)F)c1)OCc1cccc(Oc2ccccc2)n1 [Compound 555]
LC50 TBW E (eggs) [1]: > 0.1%
LC50 CL [2]: 0.002%
LC50 HF [3]: < 100 µg
LC50 MW [4]: > 0.01%
LC50 BBA [5]: 0.0035%

CC(C)C(=Nc1ccc2c(c1)OC(F)(F)O2)OCc1cccc(Oc2ccccc2)n1 [Compound 556]
LC50 TBW E (eggs) [1]: 0.04%
LC50 CL [2]: 0.0007%
LC50 HF [3]: < 100 µg
LC50 MW [4]: > 0.01%
LC50 BBA [5]: 0.0035%

CC(C)C(=Nc1cccc(Br)c1)OCc1cccc(Oc2ccc(Cl)cc2)n1 [Compound 557]
LC50 TBW E (eggs) [1]: > 0.1%
LC50 CL [2]: 0.0004%
LC50 HF [3]: < 100 µg
LC50 MW [4]: > 0.01%
LC50 BBA [5]: 0.0015%

CC(C)C(=Nc1ccc(F)c(Br)c1)OCc1cccc(Oc2ccccc2)n1 [Compound 558]
LC50 TBW E (eggs) [1]: > 0.1%
LC50 CL [2]: 0.00045%
LC50 HF [3]: < 100 µg
LC50 MW [4]: > 0.01%
LC50 BBA [5]: 0.0012%

CC(C)C(=Nc1ccc(F)c(F)c1)OCc1cccc(Oc2ccc(Cl)cc2)n1 [Compound 559]
LC50 TBW E (eggs) [1]: 0.017%
LC50 CL [2]: 0.00027%
LC50 HF [3]: < 100 µg
LC50 MW [4]: > 0.01%
LC50 BBA [5]: 0.0035%
